Measurements as given in patent US20250333397A1 (REMIX THERAPEUTICS INC., priority 2021, published 2025).
Like-named read-outs stand apart in the source and are kept apart here.

Key:
Type in all cases: cell-based, human
HTT mRNA = test: RT-qPCR splicing assay, HTT canonical (CJ) and alternative (AJ) junction mRNA; conditions: Homo sapiens; for AC50: read-out: HTT AJ (AC50, increase in AJ mRNA)
Summary of the method: (§1)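 Cells: A673 (DMEM/10% FBS, plated 24 h before) or K562 (IMDM/10% FBS). Dosing: 11-pt 3-fold series, 10 uM top final, ≤0.25% DMSO, 24 h, 37 °C/5% CO2. Readout: RT-qPCR of CJ and AJ junctions, housekeeper-normalized, RQ = 2^(-ΔΔCt) vs DMSO.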

Target C mRNA = test: RT-qPCR splicing assay panel, Target C canonical junction (CJ) mRNA; conditions: Homo sapiens
Summary of the method: as §1

SMN2 mRNA = test: RT-qPCR splicing assay panel, SMN2 canonical junction (CJ) mRNA; conditions: Homo sapiens
Summary of the method: as §1

MYB mRNA = test: RT-qPCR splicing assay, MYB canonical (CJ) and alternative (AJ) junction mRNA; conditions: Homo sapiens; for AC50: read-out: MYB AJ (AC50, increase in AJ mRNA)
Summary of the method: as §1

[1] = 24 h, Table 3A, A673 or K562 cells, 24 h treatment
[2] = 24 h, Table 3A, A673 or K562 cells, 24 h treatment, read-out: HTT CJ (IC50, decrease in CJ mRNA)
[3] = canonical junction (CJ) mRNA, RT-qPCR panel, Table 4A, read-out: HTT, decrease in CJ mRNA levels, IC50
[4] = canonical junction (CJ) mRNA, RT-qPCR panel, Table 4A, read-out: Target C, decrease in CJ mRNA levels, IC50
[5] = canonical junction (CJ) mRNA, RT-qPCR panel, Table 4A, read-out: SMN2, decrease in CJ mRNA levels, IC50
[6] = 24 h, Table 3A, A673 or K562 cells, 24 h treatment, read-out: MYB CJ (IC50, decrease in CJ mRNA)
[7] = canonical junction (CJ) mRNA, RT-qPCR panel, Table 4A, read-out: MYB, decrease in CJ mRNA levels, IC50
[8] = 24 h, Table 3B, A673 or K562 cells, 24 h treatment
[9] = 24 h, Table 3B, A673 or K562 cells, 24 h treatment, read-out: HTT CJ (IC50, decrease in CJ mRNA)
[10] = Table 4B, gene panel, read-out: HTT (IC50, decrease in CJ mRNA levels)
[11] = Table 4B, gene panel, read-out: Target C (IC50, decrease in CJ mRNA levels)
[12] = Table 4B, gene panel, read-out: SMN2 (IC50, decrease in CJ mRNA levels)
[13] = 24 h, Table 3B, A673 or K562 cells, 24 h treatment, read-out: MYB CJ (IC50, decrease in CJ mRNA)
[14] = Table 4B, gene panel, read-out: MYB (IC50, decrease in CJ mRNA levels)

SMILES	AC50 (HTT mRNA; [1]) [nM]	IC50 (HTT mRNA; [2]) [nM]	IC50 (HTT mRNA; [3]) [nM]	IC50 (Target C mRNA; [4]) [nM]	IC50 (SMN2 mRNA; [5]) [nM]	AC50 (MYB mRNA; [1]) [nM]	IC50 (MYB mRNA; [6]) [nM]	IC50 (MYB mRNA; [7]) [nM]	AC50 (HTT mRNA; [8]) [nM]	IC50 (HTT mRNA; [9]) [nM]	IC50 (HTT mRNA; [10]) [nM]	IC50 (Target C mRNA; [11]) [nM]	IC50 (SMN2 mRNA; [12]) [nM]	AC50 (MYB mRNA; [8]) [nM]	IC50 (MYB mRNA; [13]) [nM]	IC50 (MYB mRNA; [14]) [nM]
Cc1ncc(-c2cc(O)c(-c3ccc(N4CCC(CNC5CCC5)C4)nn3)cc2F)s1 (stereo not shown) [Compound 342, 2-(6-{3-[(cyclobutylamino)methyl]pyrrolidin-1-yl}pyridazin-3-yl)-4-fluoro-5-(2-methyl-1,3-thiazol-5-yl)phenol]	< 100	< 100	< 100	< 100	< 100	1000 to 10000	> 10000	> 10000								
COc1cc(-c2cc(O)c(-c3ccc(N4CC[C@@H](NC(C)(C)C)C4)nn3)cc2F)ncn1 [Compound 396]	1000 to 10000	100 to 1000	100 to 1000	1000 to 10000	< 100	1000 to 10000	1000 to 10000	1000 to 10000								
Cc1nc(C)c(-c2cc(O)c(-c3ccc(N4CC[C@H](NC5CCC5)C4)nn3)cc2F)s1 [Compound 386]	1000 to 10000	100 to 1000	100 to 1000	1000 to 10000	100 to 1000	1000 to 10000	1000 to 10000	1000 to 10000								
Cn1cc2nc(-c3ccc(-c4ccc(N5CCC(NC6CCC6)C5)nn4)c(O)c3)ccc2n1 (stereo not shown) [Compound 319]	100 to 1000	100 to 1000	100 to 1000	1000 to 10000	100 to 1000	100 to 1000	1000 to 10000	1000 to 10000								
COc1cc(-c2cc(O)c(-c3ccc(N4CCC(NCC5CC5)C4)nn3)cc2F)ncn1 (stereo not shown) [Compound 417]	1000 to 10000	1000 to 10000	1000 to 10000	> 10000	1000 to 10000	1000 to 10000	> 10000	> 10000								
Oc1cc(-c2ccnnc2)ccc1-c1ccc(N2CCC(NC3CCC3)C2)nn1 (stereo not shown) [Compound 388]	1000 to 10000	1000 to 10000	1000 to 10000	1000 to 10000	100 to 1000	1000 to 10000	1000 to 10000	1000 to 10000								
Cc1ncc(-c2ccc(-c3ccc(N4CC[C@@](C)(NCC5CC5)C4)nn3)c(O)c2)s1 (single isomer, unassigned) [Compound 439]	< 100	< 100	< 100	< 100	< 100	100 to 1000	100 to 1000	100 to 1000								
Cc1ncc(-c2cc(O)c(-c3ccc(N4CC[C@H](N[C@H](C)C5CC5)C4)nn3)cc2F)s1 [Compound 372]	< 100	< 100	< 100	< 100	< 100	< 100	< 100	< 100								
COc1cc(-c2ccc(-c3cc(C#N)c(OC4CC(C)(C)NC(C)(C)C4)nn3)c(O)c2)ncn1 [Compound 425]	1000 to 10000	100 to 1000	100 to 1000	1000 to 10000	100 to 1000	1000 to 10000	1000 to 10000	1000 to 10000								
Cn1ccc2cc(O)c(-c3ccc(N4CC[C@H](NC(C)(C)C)C4)nn3)cc2c1=O [Compound 873]									1000 to 10000	100 to 1000	100 to 1000	1000 to 10000	100 to 1000	1000 to 10000	> 10000	> 10000
Cn1cc2cc(-c3cnc(N4CC[C@@H](NC(C)(C)C)C4)nn3)c(O)cc2n1 [Compound 805]									1000 to 10000	100 to 1000	100 to 1000	1000 to 10000	1000 to 10000	> 10000	1000 to 10000	1000 to 10000
Cc1nc(C)c(-c2cc(O)c(-c3ccc(N4CC[C@@H](NC5CCC5)C4)nn3)cc2F)s1 [Compound 387]	1000 to 10000	100 to 1000	100 to 1000	1000 to 10000	100 to 1000	1000 to 10000	1000 to 10000	1000 to 10000								
Oc1cc(-c2cn[nH]c2)ccc1-c1ccc(N2CC[C@@H](NC3CCC3)C2)nn1 [Compound 114, 2-{6-[(3R)-3-(cyclobutylamino)pyrrolidin-1-yl]pyridazin-3-yl}-5-(1H-pyrazol-4-yl)phenol]	< 100	< 100	< 100	100 to 1000	< 100	100 to 1000	100 to 1000	100 to 1000								
Cc1ncc(-c2ccc(-c3ccc(N4CCC(NC5CCC5)C4)nn3)cc2F)s1 (stereo not shown) [Compound 344]	1000 to 10000	1000 to 10000	1000 to 10000	1000 to 10000	100 to 1000	1000 to 10000	1000 to 10000	1000 to 10000								
COc1cc(-c2cc(O)c(-c3ccc(N4CC[C@@](C)(NCC5CC5)C4)nn3)cc2F)cnn1 [Compound 451, 2-{6-[(3R)-3-[(cyclopropylmethyl)amino]-3-methylpyrrolidin-1-yl]pyridazin-3-yl}-4-fluoro-5-(6-methoxypyridazin-4-yl)phenol]	100 to 1000	< 100	< 100	100 to 1000	< 100	100 to 1000	100 to 1000	100 to 1000								
Cc1ncc(-c2cc(O)c(-c3ccc(OC4CC(C)(C)NC(C)(C)C4)nn3)cc2F)s1 [Compound 385]	< 100	< 100	< 100	100 to 1000	< 100	100 to 1000	100 to 1000	100 to 1000								
COc1cc(-c2ccc(-c3ccc(N4CC[C@@H](NC5CCC5)C4)nn3)c(O)c2)cnn1 [Compound 264]	100 to 1000	< 100	< 100	100 to 1000	< 100	100 to 1000	100 to 1000	100 to 1000								
COc1cc(-c2ccc(-c3ccc(N4CC[C@H](N(CCF)C5CCC5)C4)nn3)c(O)c2)cnn1 [Compound 303]	100 to 1000	100 to 1000	100 to 1000	> 10000	100 to 1000	> 10000	> 10000	> 10000								
Cn1c(=O)oc2cc(-c3ccc(N4CCC(NC(C)(C)C)C4)nn3)c(O)cc21 (stereo not shown) [Compound 800]									100 to 1000	100 to 1000	100 to 1000	100 to 1000	< 100	100 to 1000	1000 to 10000	1000 to 10000
CCc1cc(-c2ccc(-c3ccc(N4CC[C@@H](NC5CCC5)C4)nn3)c(O)c2)cnn1 [Compound 277, 2-{6-[(3R)-3-(cyclobutylamino)pyrrolidin-1-yl]pyridazin-3-yl}-5-(6-ethylpyridazin-4-yl)phenol]	> 10000	1000 to 10000	1000 to 10000	> 10000	1000 to 10000	> 10000	1000 to 10000	1000 to 10000								
CN(C1CCC1)[C@@H]1CCN(c2ccc(-c3ccc(-c4cn[nH]c4)cc3O)nn2)C1 [Compound 296, 2-{6-[(3R)-3-[cyclobutyl(methyl)amino]pyrrolidin-1-yl]pyridazin-3-yl}-5-(1H-pyrazol-4-yl)phenol]	100 to 1000	100 to 1000	100 to 1000	100 to 1000	< 100	100 to 1000	100 to 1000	100 to 1000								
Cc1ncc(-c2ccc(-c3ccc(OC4CC(C)(C)NC(C)(C)C4)nn3)c(O)c2)s1 [Compound 329]	< 100	< 100	< 100	< 100	< 100	100 to 1000	100 to 1000	100 to 1000								
Cc1cn2cc(-c3ccc(-c4ccc(N5CCC(NC6CCC6)C5)nn4)c(O)c3)ncc2n1 (stereo not shown) [Compound 327]	100 to 1000	100 to 1000	100 to 1000	1000 to 10000	< 100	100 to 1000	1000 to 10000	1000 to 10000								
